# Test results from US20060014704A1, “Compounds and their preparation for the treatment of Alzheimer's disease by inhibiting beta-amyloid peptide production” (priority 2004, published 2006).
# “Also recorded” adds a separate entry of the source. Read-outs that look alike come from different tables or passages of the source.
# Columns and labels:
# [1] = target: T1, γ-secretase cleavage of p75 neurotrophin receptor (p75-ICD) (Homo sapiens, UniProt P49768); experiment: Cell-free generation of p75-ICD from membrane fractions of 293 cells overexpressing p75-AE; type: biochemical
# T1 construct: Membrane fractions isolated from 293 cells overexpressing either APP (A), Notch-AE (B) or p75-AE (C); endogenous in cells; host or cells: 293 cells (membrane fractions); only the substrates APP, Notch-ΔE and p75-ΔE are overexpressed
# Experimental: (§1) Membrane fractions isolated from 293 cells overexpressing either APP (A), Notch-AE (B) or p75-AE (C) and incubated in the presence of indicated compounds: Compound E (CpdE, general γ-secretase inhibitor), Rgk351, Rk1 and sulindac sulfide (SS).
# [2] = system: Aβ40 and Aβ42 secretion, primary embryonic cortical neurons; experiment: Aβ secretion in primary embryonic cortical neurons derived from Tg2576 transgenic mice; type: cell-based, mouse
# From the text: Treatment of Rk1 and Rg3 decreased the level of secreted Aβ40 and Aβ42.
# [3] = system: Aβ40 and Aβ42 production, CHO-APP/PS1 cells; experiment: Secreted Aβ ELISA in CHO-APP/PS1 cells (wild-type PS1); type: cell-based, Chinese hamster
# Experimental: (§2) The effects of Rg5 on the Aβ42 generation were much smaller as compared to Rgk351 and Rk1.
# (§3) FIG. 10 depicts the effects of native ginsenosides on Aβ42 production. CHO cells stably transfected with human APP695 together with either wild-type (A, CHO-APP/PS1 cells) or ΔE9 FAD mutant (B, CHO-APP/ΔE9PS1 cells) forms of PS1 were used. Cells were treated with the indicated compounds (at 50 μM) for 8 hrs. Levels of secreted Aβ40 and Aβ42 in the medium were determined by ELISA and normalized to intracellular full-length APP. In CHO-APP/PS1 cells, average Aβ amounts in control samples were 320 pM for Aβ40 and 79 pM for Aβ42. The relative levels of Aβ and Aβ42 were normalized to values obtained from non-treated and vehicle-treated cells and are shown as % to control+s.d.). One of three representative experiments are shown.
# (§4) CHO-APP/PS1 (A) and CHO-APP/ΔE9PS1 (B) cells were treated with the indicated compounds at 50 μM for 8 hrs and the levels of secreted Aβ40 and Aβ42 were determined as described in FIG. 1. […] The PS1-ΔE9 FAD mutation diminished the Aβ42 response to Rk1 treatment (B).
# γ-secretase complex = γ-secretase complex (Homo sapiens, UniProt P49768); conditions: partially purified γ-secretase complex; cited from earlier work
# cell viability = experiment: Cell viability of treated cells; type: cell-based; conditions: up to 100 μM, 8 hour treatment
# Experimental: as §4
# Tables 1-3 Structure of ginsenosides utilized in the study and their effects on Aβ42 generation. They differ at the two or three side chains attached to the common triterpene backbone known as dammarane. The common structure skeleton for each group of ginsenosides is shown in the top panel. Ginsenosides that harbor Aβ42-lowering activity are indicated in the far right column of the tables: Aβ42-lowering activity (“Yes”), no profound effects (“No”), and non-determined (“ND”). Ginsenosides that affected cell viability are indicated as “Cytotoxic.” Abbreviation for carbohydrates are as follows: Glc, D-glucopyranosyl; Ara (pyr), L-arabinopyranosyl; Ara (fur), L-arabinofuranyosyl; Rha, L-rhamnopyranosyl.
# Steaming ginseng at high temperature gave rise to additional ginsenosides with enhanced pharmacological activity, including (20S)Rg3, Rk1 and Rg5 (22-25). […] Aβ40 levels were not changed by treatment with any of the ginsenosides tested. The potency of Aβ42-lowering activity was highest with Rk1 and (20S)Rg3. […] These studies provide a structure-activity relationship between the chemical structures of ginsenosides and Aβ42-lowering activity, further providing the basis for designing additional Aβ42-lowering analogues as well as for defining a class of compounds that harbor Aβ42-lowering activity.
# [4] = target: T2, γ-secretase cleavage of APP (AICD) (Homo sapiens, UniProt P49768); experiment: Cell-free generation of AICD from membrane fractions of 293 cells overexpressing APP; type: biochemical
# T2 construct: Membrane fractions isolated from 293 cells overexpressing either APP (A), Notch-AE (B) or p75-AE (C); endogenous in cells; host or cells: 293 cells (membrane fractions); only the substrates APP, Notch-ΔE and p75-ΔE are overexpressed
# Experimental: as §1
# [5] = system: Aβ42 production, CHO-APP/ΔE9PS1 cells; experiment: Secreted Aβ ELISA in CHO cells co-expressing human APP and FAD mutant PS1 (ΔE9, L286V); type: cell-based, Chinese hamster
# Experimental: as §2, §3, §4
# [6] = system: full-length APP and APP C-terminal fragments, CHO-APP cells; experiment: Western blot analysis of APP processing in CHO-APP cells; type: cell-based, Chinese hamster; conditions: cell lysates
# From the text: FIG. 13. depicts an analysis of APP processing after Rk1 treatment. Steady-state levels of full-length APP and APP C-terminal fragments (APP-CTFs) were examined by Western blot analysis using anti-R1 antibody. […] Correlated Aβ42 levels for each sample are shown in the bottom panel.
# γ-secretase = γ-secretase (Homo sapiens, UniProt P49768); experiment: Cell-free γ-secretase assay (CHAPSO-solubilized membrane fractions, recombinant substrates, Aβ ELISA); type: biochemical
# Experimental: (A) CHAPSO-solubilized membrane fractions were incubated with recombinant γ-secretase substrates together with the indicated compounds (at 100 μM) and the levels of Aβ42 and Aβ40 were determined by ELISA as described (27-29). (B) Dose-response of Aβ40 and Aβ42-lowering activity of Rk1 and (20S)Rg3 in a cell-free γ-secretase assay.
# Next, the inhibitory effects of Rk1 and (20S)Rg3 on Aβ generation in an in vitro γ-secretase assay was studied. […] In contrast, naproxen, an NSAID without Aβ42-lowering activity, had no effects on Aβ42 production (FIG. 15A).
# [7] = system: Aβ42 production in mammalian cells; conditions: Tae-Wan Kim et al., cited from earlier work
# [8] = system: Aβ species, CHO-APP cells; experiment: Mass spectrometric analysis of Aβ species produced from CHO-APP cells; type: cell-based, Chinese hamster; conditions: mass spectrometry, vs DMSO
# Experimental: Note that treatment leads to a decrease in Aβ42 species (1-42), and elevation in both Aβ37 (1-37) and Aβ38 (1-38). Mass spectrometric analysis of Aβ species were performed as previously described (Wang R, Sweeny D, Gandy S E, Sisodia S S. The profile of soluble amyloid β-protein in cultured cell media. J. Bio. Chem. 1996; 271: 31894-31902).
structure (smiles),measurement,setting,value
C=C(CCC=C(C)C)[C@H]1CC[C@]2(C)[C@@H]1[C@H](O)C[C@@H]1[C@@]3(C)CC[C@H](O[C@@H]4O[C@H](CO)[C@@H](O)[C@H](O)[C@H]4O[C@@H]4O[C@H](CO)[C@@H](O)[C@H](O)[C@H]4O)C(C)(C)[C@@H]3CC[C@]12C [Rk1],cell-free generation of p75-ICD,[1],does not significantly affect; also recorded: not affected
same,level of secreted Aβ40,[2],decreased
same,level of secreted Aβ42,[2],decreased
same,potency of Aβ42-reducing activity (rank),"[3]; 50 μM, 8 hrs, FIG. 11",Rk1>/=(20S)Rg3>Rg5>(20R)Rg3; also recorded: highest
same,Aβ42 levels,"[3]; CHO cells co-expressing human APP and wild-type presenilin 1, FIG. 8",reduced the Aβ42 levels
same,secretion of Aβ42,"[3]; heat-processing derived ginsenosides, 50 μM, 8 hrs, FIG. 11",selectively lowered the secretion of Aβ42
same,Aβ42 production in a cell-free assay,γ-secretase complex,inhibit the Aβ42 production
same,cell viability,cell viability,not affected
same,cell-free generation of AICD,[4],does not significantly affect; also recorded: not affected
same,Aβ42-lowering response in PS1 ΔE9 FAD mutant cells compared to PS1 wild-type cells,"[5]; 50 μM, 8 hrs, FIG. 11B vs 11A",diminished
same,Aβ42 levels,"[5]; CHO cells co-expressing human APP and FAD mutant presenilin 1 (delta E9, L286V), FIG. 8",reduced the Aβ42 levels
same,"APP C-terminal fragments (γ-secretase substrates), steady-state levels",[6],increased accumulation; also recorded: up-regulated
same,full-length APP levels,[6],not affected; also recorded: did not affect
same,Aβ generation in a cell-free γ-secretase assay,γ-secretase; FIG. 15,inhibits Aβ generation
same,Aβ42 generation in vitro,"γ-secretase; cell-free γ-secretase assay, FIG. 15 (100 μM in A)",inhibit the Aβ42 production; also recorded: potently inhibited
same,Aβ40 generation in vitro,"γ-secretase; cell-free γ-secretase assay, FIG. 15B",inhibited both Aβ40 and Aβ42 with a similar potency
same,IC50,"γ-secretase; cell-free γ-secretase assay, FIG. 15B, read-out: IC50 for Aβ40",27 ± 3 µM
same,IC50,"γ-secretase; cell-free γ-secretase assay, FIG. 15B, read-out: IC50 for Aβ42",32 ± 5 µM
same,production of Aβ42 in mammalian cells,[7]; patent application pending,lower the production of Aβ42
same,relative effectiveness in reducing Aβ42 levels,[7],most effective
same,Aβ37 (1-37),[8],elevation
same,Aβ38 (1-38),[8],elevation
same,Aβ42 species (1-42),[8],decrease
